Tested on: Mild to Moderate Osteoarthritis of the Knee
Assay: Phase 2 study: WOMAC joint stiffness subscale score
Assay type: in vivo, human
Conditions: for Change of WOMAC Joint Stiffness score from baseline (±SEM) / Percentage of improvement from baseline, WOMAC Joint Stiffness score: all patients taken as active
From the text: This is a Phase 2, multicenter, randomized, double blind (within dose), placebo controlled, parallel group, proof of concept, and dose range finding study to evaluate the efficacy, safety, and PK of 2-(diethylamino)ethyl 2-(4-isobutylphenyl)propionate hydrochloride spray in adult subjects with clinically symptomatic mild to moderate OA of the knee. For subjects with bilateral knee pain, both knees will be treated, but the most symptomatic knee (i.e., the most painful knee as measured by the Western Ontario and McMaster University Osteoarthritis Index [WOMAC® 3.1] pain subscale score at Screening) will be designated as the target knee for efficacy analyses. For subjects with unilateral knee pain, only the symptomatic (target) knee will be treated.
After a Screening Period of up to 3 weeks and radiographic evaluation of the target knee joint space, a subject will be randomly assigned to 1 of 3 treatment groups in a 1:1:1 ratio with a 2:1 ratio of active:placebo within each treatment group (ie, 2 subjects to active treatment and 1 subject to placebo): • Group A: 8.75 mg 2-(diethylamino)ethyl 2-(4-isobutylphenyl)propionate/knee (2 sprays/knee, one spray to the medial surface and one spray to the lateral surface of the knee), twice daily (BID, approximately every 12 hours; n=50) or placebo (2 sprays/knee), BID (approximately every 12 hours; n=25) for a total of 4 sprays per knee per day; • Group B: 17.5 mg 2-(diethylamino)ethyl 2-(4-isobutylphenyl)propionate/knee (4 sprays/knee, one spray to the medial surface and one spray to the lateral surface of the knee, and one spray to front and one spray to the back of the knee), BID (approximately every 12 hours; n=50) or placebo (4 sprays/knee), BID (approximately every 12 hours; n=25) for a total of 8 sprays per knee per day; • Group C: 35 mg 2-(diethylamino)ethyl 2-(4-isobutylphenyl)propionate/knee (8 sprays/knee, each spray is to be applied to a different non-overlapping area around the knee, and the areas are to be uniformly distributed around the knee), BID (approximately every 12 hours; n=50) or placebo (8 sprays/knee), BID (approximately every 12 hours; n=25) for a total of 16 sprays per knee per day.
The VAS version of the WOMAC will be used for the Primary and Secondary Efficacy Endpoints. Efficacy endpoints will be assessed at Screening and Baseline (Day 1) and at the Week 2, Week 4, Week 8, and Week 12/EOS visits.
3.9.2. Secondary Efficacy Endpoints: • 1. Change from Baseline in the WOMAC (VAS) pain subscale score for the target knee at 2, 4, and 8 weeks of treatment; • 2. Change from Baseline in the WOMAC (VAS) stiffness subscale scores for the target knee and WOMAC (VAS) functional ability subscale scores at 2, 4, 8, and 12 weeks of treatment; • 3. Change from Baseline in the overall WOMAC (VAS) score at 2, 4, 8, and 12 weeks of treatment.
The Secondary Efficacy Endpoints, change from Baseline in the WOMAC subscale scores for pain, stiffness, and functional ability, and overall WOMAC score at 2, 4, 8, and 12 weeks of treatment, will be analyzed using the same methods as for the Primary Efficacy Endpoint.
To determine this, we assumed that all patients received 2-(diethylamino)ethyl 2-(4-isobutylphenyl)propionate, active drug treatment (i.e. all patients who received 2-(diethylamino)ethyl 2-(4-isobutylphenyl)propionate or placebo treatment for 12 weeks or mixed up treatment during the 12-week treatment, as 2-(diethylamino)ethyl 2-(4-isobutylphenyl)propionate-treated). Based on this assumption, that is, to treat this trial as an open-label study and that all patients received active treatment, we conducted efficacy analysis using top-line efficacy datasets prepared by CRO and the re-analysis results are presented in the following tables (Tables 29-47). […] (William G. Bensen, Justus J. Fiechtner, James 1. McMillen, et. al. Treatment of Osteoarthritis with Celecoxib. Mayo Clin Proc, November 1999. Vol 74, 1095-1105.)

[1] = 8.75 mg/knee (BID), Follow up (week 13, day 91)
[2] = 8.75 mg/knee (BID), Week 2 (day 14)
[3] = 8.75 mg/knee (BID), Week 4 (day 28)
[4] = 8.75 mg/knee (BID), Week 8 (day 56)
[5] = 8.75 mg/knee (BID), Week 12 (day 84)
[6] = 17.5 mg/knee (BID), Follow up (week 13, day 91)
[7] = 17.5 mg/knee (BID), Week 2 (day 14)
[8] = 17.5 mg/knee (BID), Week 4 (day 28)
[9] = 17.5 mg/knee (BID), Week 8 (day 56)
[10] = 17.5 mg/knee (BID), Week 12 (day 84)
[11] = 35 mg/knee (BID), Follow up (week 13, day 91)
[12] = 35 mg/knee (BID), Week 2 (day 14)
[13] = 35 mg/knee (BID), Week 4 (day 28)

With CCN(CC)CCOC(=O)C(C)c1ccc(CC(C)C)cc1 (stereo not shown) [2-(diethylamino)ethyl 2-(4-isobutylphenyl)propionate] the “Change of WOMAC Joint Stiffness score from baseline (±SEM), adjusted by […] of the Testing Drug Amount” value [1] was −39.1(±5.1) mm, the “Percentage of improvement from baseline, WOMAC Joint Stiffness score, adjusted by […] of the Testing Drug Amount” value (“Percentage … of the Testing Drug Amount” below) [1] was −60.9% and the “Change of WOMAC Joint Stiffness score from baseline (±SEM)” value [1] was −22.8(±3.7) mm. For the same molecule, the “Percentage of improvement from baseline, WOMAC Joint Stiffness score” value [1] was −35.5%, the “Change of WOMAC Joint Stiffness score from baseline (±SEM), adjusted by […] of the Testing Drug Amount” value [2] was −20.1(±4.3) mm and the “Percentage … of the Testing Drug Amount” value [2] was −31.2%. For the same molecule, the “Change of WOMAC Joint Stiffness score from baseline (±SEM)” value [2] was −11.7(±2.5) mm, the “Percentage of improvement from baseline, WOMAC Joint Stiffness score” value [2] was −18.2% and the “Change of WOMAC Joint Stiffness score from baseline (±SEM), adjusted by […] of the Testing Drug Amount” value [3] was −31.7(±5.7) mm. The “Percentage … of the Testing Drug Amount” value [3] was −49.4%, the “Change of WOMAC Joint Stiffness score from baseline (±SEM)” value [3] was −18.5(±3.3) mm and the “Percentage of improvement from baseline, WOMAC Joint Stiffness score” value [3] was −28.8%. The “Change of WOMAC Joint Stiffness score from baseline (±SEM), adjusted by […] of the Testing Drug Amount” value [4] was −37.6(±6.0) mm, the “Percentage … of the Testing Drug Amount” value [4] was −58.5% and the “Change of WOMAC Joint Stiffness score from baseline (±SEM)” value [4] was −21.9(±3.5) mm. For the same molecule, the “Percentage of improvement from baseline, WOMAC Joint Stiffness score” value [4] was −34.1%, the “Change of WOMAC Joint Stiffness score from baseline (±SEM), adjusted by […] of the Testing Drug Amount” value [5] was −38.4(±5.3) mm and the “Percentage … of the Testing Drug Amount” value [5] was −59.7%. For the same molecule, the “Change of WOMAC Joint Stiffness score from baseline (±SEM)” value [5] was −22.4(±3.1) mm, the “Percentage of improvement from baseline, WOMAC Joint Stiffness score” value [5] was −34.8% and the “Change of WOMAC Joint Stiffness score from baseline (±SEM), adjusted by […] of the Testing Drug Amount” value [6] was −44.7(±6.2) mm. The “Percentage … of the Testing Drug Amount” value [6] was −65.9%, the “Change of WOMAC Joint Stiffness score from baseline (±SEM)” value [6] was −26.1(±3.6) mm and the “Percentage of improvement from baseline, WOMAC Joint Stiffness score” value [6] was −38.4%. The “Change of WOMAC Joint Stiffness score from baseline (±SEM), adjusted by […] of the Testing Drug Amount” value [7] was −32.2(±4.3) mm, the “Percentage … of the Testing Drug Amount” value [7] was −47.3% and the “Change of WOMAC Joint Stiffness score from baseline (±SEM)” value [7] was −18.8(±2.5) mm. The “Percentage of improvement from baseline, WOMAC Joint Stiffness score” value [7] was −27.6%, the “Change of WOMAC Joint Stiffness score from baseline (±SEM), adjusted by […] of the Testing Drug Amount” value [8] was −40.0(±5.1) mm and the “Percentage … of the Testing Drug Amount” value [8] was −58.8%. The “Change of WOMAC Joint Stiffness score from baseline (±SEM)” value [8] was −23.3(±3.0) mm, the “Percentage of improvement from baseline, WOMAC Joint Stiffness score” value [8] was −34.3% and the “Change of WOMAC Joint Stiffness score from baseline (±SEM), adjusted by […] of the Testing Drug Amount” value [9] was −45.5(±5.3) mm. The “Percentage … of the Testing Drug Amount” value [9] was −66.9%, the “Change of WOMAC Joint Stiffness score from baseline (±SEM)” value [9] was −26.5(±3.1) mm and the “Percentage of improvement from baseline, WOMAC Joint Stiffness score” value [9] was −39.0%. The “Change of WOMAC Joint Stiffness score from baseline (±SEM), adjusted by […] of the Testing Drug Amount” value [10] was −51.1(±5.8) mm, the “Percentage … of the Testing Drug Amount” value [10] was −75.1% and the “Change of WOMAC Joint Stiffness score from baseline (±SEM)” value [10] was −29.8(±3.4) mm. For the same molecule, the “Percentage of improvement from baseline, WOMAC Joint Stiffness score” value [10] was −43.8%, the “Change of WOMAC Joint Stiffness score from baseline (±SEM), adjusted by […] of the Testing Drug Amount” value [11] was −41.9(±5.3) mm and the “Percentage … of the Testing Drug Amount” value [11] was −67.4%. The “Change of WOMAC Joint Stiffness score from baseline (±SEM)” value [11] was −24.4(±3.1) mm, the “Percentage of improvement from baseline, WOMAC Joint Stiffness score” value [11] was −39.3% and the “Change of WOMAC Joint Stiffness score from baseline (±SEM), adjusted by […] of the Testing Drug Amount” value [12] was −19.3(±4.6) mm. For the same molecule, the “Percentage … of the Testing Drug Amount” value [12] was −31.2%, the “Change of WOMAC Joint Stiffness score from baseline (±SEM)” value [12] was −11.3(±2.7) mm and the “Percentage of improvement from baseline, WOMAC Joint Stiffness score” value [12] was −18.2%. The “Change of WOMAC Joint Stiffness score from baseline (±SEM), adjusted by […] of the Testing Drug Amount” value [13] was −30.2(±5.0) mm, the “Percentage … of the Testing Drug Amount” value [13] was −48.5% and the “Change of WOMAC Joint Stiffness score from baseline (±SEM)” value [13] was −17.6(±2.9) mm. The “Percentage of improvement from baseline, WOMAC Joint Stiffness score” value [13] was −28.3%.
